Test results: patent US6706740B2, “Fungicidal heterocyclic aromatic amides and their compositions, methods of use and preparation” (Dow AgroSciences LLC, priority 1999, dated 2004)
Where two headings read alike, the source gives them in different places.

Legend:
Erysiphe graminis—ERYSGT = experiment: Powdery Mildew of Wheat, in vivo whole plant, 24 Hour Protectant; details: Erysiphe, read-out: ERYSGT in vivo 1 Day Protectant
[1] = tested on: Puccinia recondita—PUCCRT; experiment: Brown Rust of Wheat, in vivo whole plant, 24 Hour Protectant; details: for pest or weed control at 100 ppm: Puccinia, read-out: PUCCRT in vivo 1 Day Protectant
Ustilago maydis (USTIMA) = experiment: microbe, parasite or virus in culture; format: cell-based; details: Mycosarcoma maydis, read-out: USTIMA in vitro Growth Inhibition
[2] = tested on: Magnaporthe grisea (Pyricularia oryzae—PYRIOR); experiment: microbe, parasite or virus in culture; format: cell-based; details: Pyricularia oryzae, read-out: PYRIOR in vitro Growth Inhibition
[3] = tested on: Mycosphaerella graminicola (Septoria tritici—SEPTTR); experiment: In vitro fungal growth inhibition, Mycosphaerella graminicola (SEPTTR); format: cell-based; details: Zymoseptoria tritici, read-out: SEPTTR in vitro Growth Inhibition
[4] = tested on: Leptosphaeria nodorum—LEPTNO; experiment: Glume Blotch of Wheat, in vivo whole plant, 24 Hour Protectant; details: for pest or weed control at 100 ppm: Leptosphaeria, read-out: LEPTNO in vivo 1 Day Protectant
Septoria tritici—SEPTTR = experiment: Leaf Blotch of Wheat, in vivo whole plant, 24 Hour Protectant; details: for pest or weed control at 100 ppm: Zymoseptoria tritici, 24 h, read-out: SEPTTR in vivo 1 Day Protectant
[5] = tested on: Stagonospora nodorum (Leptosphaeria nodorum—LEPTNO); experiment: In vitro fungal growth inhibition, Stagonospora nodorum (LEPTNO); format: cell-based; details: Leptosphaeria, read-out: LEPTNO in vitro Growth Inhibition
[6] = tested on: Phytophthora infestans (PHYTIN); experiment: microbe, parasite or virus in culture; format: cell-based; details: Phytophthora infestans, read-out: PHYTIN in vitro Growth Inhibition
[7] = tested on: Phytophthora infestans—PHYTIN; experiment: whole plant or invertebrate; format: in vivo; details: Phytophthora, in Solanum lycopersicum, 24 h, read-out: PHYTIN in vivo 1 Day Protectant
[8] = tested on: Rhizoctonia solani (RHIZSO); experiment: microbe, parasite or virus in culture; format: cell-based; details: Rhizoctonia solani, read-out: RHIZSO in vitro Growth Inhibition
[9] = 100 ppm spray, wheat, 24 hour protectant, control of fungal infection vs untreated plants
[10] = 100 ppm spray, 24 hour protectant, wheat, control of fungal infection vs untreated plants
[11] = wheat plants sprayed at 100 ppm, inoculated after 24 hours, control of fungal infection vs untreated plants
[12] = 100 ppm spray, wheat, 24 hour protectant, % control of fungal infection vs untreated plants

Compound	inhibition at 25 ppm (Ustilago maydis (USTIMA))	inhibition at 25 ppm [2]	inhibition at 25 ppm ([3]; 25 ppm in growth medium)	inhibition at 25 ppm ([5]; 25 ppm in growth medium)	inhibition at 25 ppm [6]	pest or weed control at 100 ppm [7]	inhibition at 25 ppm [8]	pest or weed control at 100 ppm (Erysiphe graminis—ERYSGT; [10])	pest or weed control at 100 ppm [1, 10]	pest or weed control at 100 ppm [4, 10]	pest or weed control at 100 ppm (Septoria tritici—SEPTTR; [10])	also measured
COC(=O)C(Cc1ccc(OCc2ccccc2)cc1)NC(=O)c1nccc(OC)c1O (single isomer, unassigned) [Compound 338]	> 80%	< 80%	< 80%	< 80%	< 80%	< 25%	< 80%					pest or weed control at 100 ppm (Erysiphe graminis—ERYSGT; [9]): < 25%; PUCCRT in vivo 1 Day Protectant [1, 9]: + +; LEPTNO in vivo 1 Day Protectant [4, 9]: + +; pest or weed control at 100 ppm (Septoria tritici—SEPTTR; [9]): 25 to 74%
CCCCCCCCCNC(=O)c1ncccc1O [Compound 201]	< 80%	> 80%	< 80%	< 80%	< 80%	< 25%	< 80%	< 25%	< 25%	< 25%	< 25%	
O=C(NCC1CCCCC1)c1ncccc1O [Compound 202]	< 80%	> 80%	< 80%	< 80%	> 80%	< 25%	< 80%	< 25%	< 25%	< 25%	< 25%	
CC1(C)CC(NC(=O)c2ncccc2O)CC(C)(C2CC2)C1 (stereo not drawn) [Compound 204]	< 80%	< 80%	< 80%	< 80%	< 80%	< 25%	< 80%	< 25%	< 25%	< 25%	25 to 74%	
CC1(C)CC(NC(=O)c2ncccc2O)CC(C)(C)C1=O [Compound 205]	< 80%	< 80%	< 80%	< 80%	< 80%	< 25%	< 80%	< 25%	< 25%	< 25%	< 25%	
O=C(N[C@H]1CC2CC1[C@@H]1CCC[C@H]21)c1ncccc1O (stereo partly drawn) [Compound 206]	< 80%	> 80%	> 80%	> 80%	< 80%	< 25%	> 80%	< 25%	< 25%	< 25%	< 25%	
C[C@H]1C2CC([C@H]3CCC[C@@H]23)[C@@H]1NC(=O)c1ncccc1O (stereo partly drawn) [Compound 207]	< 80%	> 80%	> 80%	> 80%	< 80%	< 25%	< 80%	< 25%	< 25%	< 25%	< 25%	
O=C(Nc1ccc(Cl)cc1)c1ncccc1O [Compound 213]	< 80%	< 80%	> 80%	< 80%	> 80%	25 to 74%	< 80%	< 25%		< 25%	< 25%	PUCCRT in vivo 1 Day Protectant [1, 10]: + +
O=C(Nc1cccc(C(F)(F)F)c1)c1ncccc1O [Compound 214]	< 80%	< 80%	< 80%	< 80%	< 80%	< 25%	< 80%	< 25%	< 25%	< 25%	< 25%	
COc1ccnc(C(=O)NC2CCN(C(=O)c3ccccc3)CC2)c1O [Compound 308]	< 80%					< 25%		25 to 74%	< 25%	< 25%	25 to 74%	
COc1ccnc(C(=O)N[C@H]2COC(=O)[C@H](Cc3ccccc3)C[C@H](C)OC2=O)c1O [Compound 382]	< 80%	< 80%	> 80%	< 80%	< 80%		< 80%					pest or weed control at 100 ppm (Erysiphe graminis—ERYSGT; [9]): < 25%; pest or weed control at 100 ppm [1, 9]: 25 to 74%; LEPTNO in vivo 1 Day Protectant [4, 9]: + +; pest or weed control at 100 ppm (Septoria tritici—SEPTTR; [9]): 25 to 74%
CCCC[C@H]1C(=O)O[C@H](C)C(NC(=O)c2cccc(NC(=O)c3nccc(OC)c3O)c2O)C(=O)O[C@@H](C)[C@@H]1OC(=O)CC(C)C (stereo partly drawn) [Compound 473]						< 25%						pest or weed control at 100 ppm (Erysiphe graminis—ERYSGT; 24 h): < 25%; pest or weed control at 100 ppm ([1]; 24 h): 25 to 74%; LEPTNO in vivo 1 Day Protectant ([4]; in vivo): + +; pest or weed control at 100 ppm (Septoria tritici—SEPTTR): 25 to 74%
CC(C)C(=O)O[C@H]1[C@H](C)OC(=O)[C@@H](NC(=O)c2ccncc2O)COC(=O)[C@@H]1Cc1ccccc1 [Compound 513]						< 25%						pest or weed control at 100 ppm (Erysiphe graminis—ERYSGT; [11]): < 25%; pest or weed control at 100 ppm [1, 11]: 25 to 74%; LEPTNO in vivo 1 Day Protectant [4, 11]: + +; pest or weed control at 100 ppm (Septoria tritici—SEPTTR; [11]): < 25%
Cc1ccnc(C(=O)NC2CC(C)(C)CC(C)(C)C2)c1OC(=O)C(C)C [Compound 571]						25 to 74%						pest or weed control at 100 ppm (Erysiphe graminis—ERYSGT; [11]): < 25%; pest or weed control at 100 ppm [1, 11]: < 25%; pest or weed control at 100 ppm [4, 11]: 25 to 74%; pest or weed control at 100 ppm (Septoria tritici—SEPTTR; [11]): < 25%
COc1ccnc(C(=O)N[C@H]2CO[C@@H](C(C)Cc3ccc(C(C)(C)C)cc3)OC2)c1OC(C)=O (stereo partly drawn) [Compound 593]	< 80%	< 80%			< 80%	< 25%	< 80%					pest or weed control at 100 ppm (Erysiphe graminis—ERYSGT; [11]): < 25%; PUCCRT in vivo 1 Day Protectant [1, 11]: + +; inhibition at 25 ppm ([3]; 25 ppm in the growth medium): < 80%; pest or weed control at 100 ppm (Septoria tritici—SEPTTR; [11]): 25 to 74%; inhibition at 25 ppm ([5]; 25 ppm in the growth medium): < 80%
COCCC(=O)Oc1c(OC)ccnc1C(=O)N[C@H]1COC(=O)[C@H](Cc2ccccc2)[C@@H](OC(=O)CCOC)[C@H](C)OC1=O [Compound 705]						< 25%						pest or weed control at 100 ppm (Erysiphe graminis—ERYSGT; [12]): < 25%; PUCCRT in vivo 1 Day Protectant [1, 12]: + +; LEPTNO in vivo 1 Day Protectant [4, 12]: + +; pest or weed control at 100 ppm (Septoria tritici—SEPTTR; [12]): 25 to 74%
COc1ccnc(C(=O)N[C@H]2COC(=O)[C@H](Cc3ccccc3)[C@@H](OC(=O)C(C)C)[C@H](C)OC2=O)c1O[Si](C)(C)C(C)(C)C [Compound 720]						< 25%						pest or weed control at 100 ppm (Erysiphe graminis—ERYSGT; [12]): < 25%; PUCCRT in vivo 1 Day Protectant [1, 12]: + +; LEPTNO in vivo 1 Day Protectant [4, 12]: + +; SEPTTR in vivo 1 Day Protectant (Septoria tritici—SEPTTR; [12]): + +
